In US9340530B2, “Preparation and use of bicyclic himbacine derivatives as PAR-1 receptor antagonists” (Merck, Sharp & Dohme Corp., priority 2012, dated 2016):

Legend:
[1] = molecular target: thrombin receptor (PAR-1 receptor) (Homo sapiens (Human), UniProt P25116); assay: High throughput thrombin receptor radioligand binding assay ([3H]haTRAP, platelet membranes); details: [3H]haTRAP binding to platelet membranes
Experimental: The following binding assays were used to determine the ability of the inventive compounds to inhibit the PAR-1 receptor.
A(pF-F)R(ChA)(hR)(I2—Y)—NH2 (1.03 mg) and 10% Pd/C (5.07 mg) were suspended in DMF (250 μl) and diisopropylethylamine (10 μL). The vessel was attached to the tritium line, frozen in liquid nitrogen and evacuated. Tritium gas (342 mCi) was then added to the flask, which was stirred at room temperature for 2 hours. At the completion of the reaction, the excess tritium was removed and the reacted peptide solution was diluted with DMF (0.5 ml) and filtered to remove the catalyst. The collected DMF solution of the crude peptide was diluted with water and freeze dried to remove the labile tritium. The solid peptide was redissolved in water and the freeze drying process repeated. The tritiated peptide ([^3H]haTRAP) was dissolved in 0.5 ml of 0.1% aqueous TFA and purified by HPLC using the following conditions: column, Vydac™ C18, 25 cm×9.4 mm I.D.; mobile phase, (A) 0.1% TFA in water, (B) 0.1% TFA in CH3CN; gradient, (A/B) from 100/0 to 40/60 over 30 min; flow rate, 5 ml/min; detection, UV at 215 nm. The radiochemical purity of [^3H]haTRAP was 99% as analyzed by HPLC. A batch of 14.9 mCi at a specific activity of 18.4 Ci/mmol was obtained.
Platelet membranes were prepared using a modification of the method of Natarajan et al. (Natarajan et al, Int. J. Peptide Protein Res. 45:145-151 (1995)) from 20 units of platelet concentrates obtained from the North Jersey Blood Center (East Orange, N.J.) within 48 hours of collection. All steps were carried out at 4° C. under approved biohazard safety conditions. Platelets were centrifuged at 100×g for 20 minutes at 4° C. to remove red cells. The supernatants were decanted and centrifuged at 3000×g for 15 minutes to pellet platelets. Platelets were re-suspended in 10 mM Tris-HCl, pH 7.5, 150 mM NaCl, 5 mM EDTA, to a total volume of 200 ml and centrifuged at 4400×G for 10 minutes. This step was repeated two additional times. […] Protein concentration was determined by a Lowry assay (Lowry et al., J. Biol. Chem., 193:265-275 (1951)). […]

[2] = molecular target: PAR1 (Homo sapiens (Human), UniProt P25116); assay: Par-1 FLIPR assay (calcium, HEK 293 cells, PAR1 activating peptide); format: cell-based; details: PAR1 selective receptor-activating peptide at 80% activation
Experimental: HEK 293 Cells were grown in media containing DMEM, 10% FBS pen/strep/L-Glutamine and non-essential amino acids. The cells were plated in 384-well PDL coated plates at 12000 cells/well and incubated overnight at 37° C./5% CO2. Media was then removed from the cells, which were then incubated with buffer (Hank's containing HEPES and Chaps) containing FLIPR calcium-5 dye, made with buffer containing probenecid, for 60 minutes at 37° C. Varying concentrations of compound in a final concentration of 5% DMSO were then added to the cells and incubated at 25° C. for 30 minutes. […] The FLIPR reads at an excitation wavelength of 480 nm and an emission wavelength of 535 nm, and performs 60 scans over a 1-2 min reading time. The data were analyzed by taking the peak signal over a portion of the range of the 60 scans and dividing this signal by the minimum signal for that same range.

thrombin receptor (PAR-1 receptor), sequence (P25116 22-425): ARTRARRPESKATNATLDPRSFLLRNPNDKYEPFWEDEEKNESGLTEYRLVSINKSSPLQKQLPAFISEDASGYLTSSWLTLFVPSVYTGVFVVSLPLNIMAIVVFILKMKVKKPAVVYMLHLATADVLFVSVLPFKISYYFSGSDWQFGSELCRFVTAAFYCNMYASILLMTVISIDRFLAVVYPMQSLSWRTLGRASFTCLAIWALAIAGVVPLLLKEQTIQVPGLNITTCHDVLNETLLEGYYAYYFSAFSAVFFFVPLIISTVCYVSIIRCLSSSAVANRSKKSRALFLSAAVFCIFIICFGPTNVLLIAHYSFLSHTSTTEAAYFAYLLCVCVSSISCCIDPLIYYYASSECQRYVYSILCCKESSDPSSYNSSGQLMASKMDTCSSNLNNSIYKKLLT
PAR1, sequence (P25116 22-425): as above

SMILES	Ki [1] [nM]	IC50 [2] [nM]
C[C@H]1OC(=O)C2CC(F)(F)[C@@H](C)[C@H](/C=C/c3ccc(-c4cccc(F)c4)cn3)C21 (stereo partly drawn) [Example 2]	3	5.01
C[C@H]1OC(=O)[C@]2(O)CC(F)(F)[C@@H](C)[C@H](/C=C/c3ccc(-c4cccc(F)c4)cn3)[C@H]12 [Example 10]	3	8.1
C[C@H]1OC(=O)[C@]2(C(=O)NCCO)CC(F)(F)[C@@H](C)[C@H](/C=C/c3ccc(-c4cccc(F)c4)cn3)[C@H]12 [Example 13]	3	17
